Experimental data as given in PMC4583267, “Synthesis and Evaluation of Novel Triterpene Analogues of Ursolic Acid as Potential Antidiabetic Agent” (PLoS ONE, 2015).

Biological target: T1, α-glucosidase from baker's yeast (Saccharomyces cerevisiae, UniProt P53341)
T1 construct: purchased
Assay: not given
Conditions: S4 Table; analogues of previous work; cited from earlier work

T1 sequence (P53341 whole entry): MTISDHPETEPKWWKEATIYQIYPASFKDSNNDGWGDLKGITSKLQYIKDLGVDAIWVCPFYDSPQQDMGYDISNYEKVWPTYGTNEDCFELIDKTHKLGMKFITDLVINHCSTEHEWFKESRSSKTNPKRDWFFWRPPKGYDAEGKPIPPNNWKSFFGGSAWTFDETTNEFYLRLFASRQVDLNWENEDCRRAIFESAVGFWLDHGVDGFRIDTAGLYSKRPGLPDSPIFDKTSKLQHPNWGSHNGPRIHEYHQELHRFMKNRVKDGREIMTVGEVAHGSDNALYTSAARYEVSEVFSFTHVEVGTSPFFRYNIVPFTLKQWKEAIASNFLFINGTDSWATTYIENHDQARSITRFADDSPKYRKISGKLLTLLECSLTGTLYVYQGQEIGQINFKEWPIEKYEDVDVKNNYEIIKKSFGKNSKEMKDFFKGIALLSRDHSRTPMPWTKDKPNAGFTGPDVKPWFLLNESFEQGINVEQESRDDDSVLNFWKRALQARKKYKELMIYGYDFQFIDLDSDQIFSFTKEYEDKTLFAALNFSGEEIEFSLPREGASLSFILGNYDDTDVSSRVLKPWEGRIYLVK

| Structure (SMILES) | Observed pIC50 |
| --- | --- |
| CC(=O)O[C@H]1CC[C@@]2(C)C(CC[C@]3(C)C2CC=C2C4[C@@H](C)[C@H](C)CC[C@]4(C(=O)Nc4ccccc4F)CC[C@]23C)C1(C)C (stereo partly shown) [Analogue 4a] | 4.848 |
| CC(=O)O[C@H]1CC[C@@]2(C)C(CC[C@]3(C)C2CC=C2C4[C@@H](C)[C@H](C)CC[C@]4(C(=O)Nc4ccc(Br)cc4)CC[C@]23C)C1(C)C (stereo partly shown) [Analogue 9a] | 5.030 |
| CC(=O)O[C@H]1CC[C@@]2(C)C(CC[C@]3(C)C2CC=C2C4[C@@H](C)[C@H](C)CC[C@]4(C(=O)O)CC[C@]23C)C1(C)C (stereo partly shown) [Analogue 2] | 5.278 |
| CC(=O)O[C@H]1CC[C@@]2(C)C(CC[C@]3(C)C2CC=C2C4[C@@H](C)[C@H](C)CC[C@]4(C(=O)Nc4ccccc4)CC[C@]23C)C1(C)C (stereo partly shown) [Analogue 3a] | 5.249 |
| CC(=O)O[C@H]1CC[C@@]2(C)C(CC[C@]3(C)C2CC=C2C4[C@@H](C)[C@H](C)CC[C@]4(C(=O)Nc4ccccc4Br)CC[C@]23C)C1(C)C (stereo partly shown) [Analogue 6a] | 4.954 |
| CC(=O)O[C@H]1CC[C@@]2(C)C(CC[C@]3(C)C2CC=C2C4[C@@H](C)[C@H](C)CC[C@]4(C(=O)Nc4ccccc4Cl)CC[C@]23C)C1(C)C (stereo partly shown) [Analogue 5a] | 4.481 |
| CC(=O)O[C@H]1CC[C@@]2(C)C(CC[C@]3(C)C2CC=C2C4[C@@H](C)[C@H](C)CC[C@]4(C(=O)Nc4ccc(Cl)cc4)CC[C@]23C)C1(C)C (stereo partly shown) [Analogue 8a] | 5.489 |
| CC(=O)O[C@H]1CC[C@@]2(C)C(CC[C@]3(C)C2CC=C2C4[C@@H](C)[C@H](C)CC[C@]4(C(=O)Nc4ccc(F)cc4)CC[C@]23C)C1(C)C (stereo partly shown) [Analogue 7a] | 5.185 |

Same assay, conditions: values of earlier work; cited from earlier work

| Structure (SMILES) | IC50 |
| --- | --- |
| CC(=O)O[C@H]1CC[C@@]2(C)C(CC[C@]3(C)C2CC=C2C4[C@@H](C)[C@H](C)CC[C@]4(C(=O)O)CC[C@]23C)C1(C)C (stereo partly shown) [Analogue 2] | 5.27 ± 0.35 µM |
| CC(=O)O[C@H]1CC[C@@]2(C)C(CC[C@]3(C)C2CC=C2C4[C@@H](C)[C@H](C)CC[C@]4(C(=O)Nc4ccccc4)CC[C@]23C)C1(C)C (stereo partly shown) [Analogue 3a] | 5.64 ± 1.12 µM |
| CC(=O)O[C@H]1CC[C@@]2(C)C(CC[C@]3(C)C2CC=C2C4[C@@H](C)[C@H](C)CC[C@]4(C(=O)Nc4ccc(Cl)cc4)CC[C@]23C)C1(C)C (stereo partly shown) [Analogue 8a] | 3.24 ± 0.21 µM |

Biological target: T1, α-glucosidase from baker's yeast
Assay: biochemical
Conditions: not given
Method: A stock solution of each sample, which has been dissolved in dimethylsulfoxide (DMSO) at the concentrations of 0.05 μM to 500 μM, was diluted with 0.1 M phosphate buffer solution (pH = 6.8) containing an appropriate concentration of enzyme solution (0.1 U/mL). After a 10 min pre-incubation at 37°C of the reactions, the substrate (1mM p-nitrophenyl-α-D-glucopyranoside) was added to initiate them. Then the reactions were incubated for 30 min at 37°C before they were terminated by adding 1 M Na2CO3, and their optical density values were measured at 405 nm by using a Multimodel Plate Reader (Infinite 200). Each experiment was repeated at least four times.
To determine the inhibition activity of each sample, the enzyme activity was measured at a fixed substrate concentration, in which a sequence of sample concentrations were tested. The IC50 value was calculated according to the curve fit to the sequence of concentrations versus the corresponding inhibition abilities. The results were illustrated in Table 1 and Fig 3.
The α-glucosidase inhibition assay was performed according to the method of Worawalai et al. with a slight modification. The α-glucosidase enzyme (0.1 U/mL) and substrate (1 mM p-nitrophenyl-α-D-glucopyranoside) were dissolved in 0.1 M phosphate buffer, pH 6.8. 10 μL of each synthesized analogue (1 mg/mL in DMSO) was pre-incubated with 8 μL of α-glucosidase at 37°C for 10 min. A 100 μL of substrate solution was then added to the reaction mixture, which was further incubated at 37°C for 30 min. Then, the reaction was terminated by adding 100 μL of 1 M Na2CO3 solution. Enzymatic activity was quantified by measuring the absorbance at 405 nm with a use of a Multimodel Plate Reader (Infinite 200). The percentage of inhibition was calculated by using [(A 0-A 1)/A 0]×100%, where A 0 was the absorbance without the sample, and A 1 was the absorbance with the sample. The IC50 value was determined from a plot of the percentage of inhibition versus the sample concentration.

| Structure (SMILES) | IC50 |
| --- | --- |
| C[C@@H]1CC[C@]2(C(=O)O)CC[C@]3(C)C(=CCC4[C@@]5(C)CCC(=O)C(C)(C)C5CC[C@]43C)C2[C@H]1C (stereo partly shown) [Analogue 11, 3-Oxo-urs-12-en-28-oic acid] | 2470 nM |
| C[C@H]1[C@H](C)CC[C@]2(C(=O)O)CC[C@]3(C)C(=CC[C@@H]4[C@@]5(C)CC[C@H](O)C(C)(C)[C@@H]5CC[C@]43C)[C@H]12 [Analogue 1, 3β-hydroxy-urs-12-en-28-oic acid, reference compound] | 5080 ± 700 nM |

Same assay, conditions: Table 1; read-out: Observed pIC50 (converted)

| Structure (SMILES) | IC50 |
| --- | --- |
| COc1ccc(NC(=O)[C@]23CC[C@@H](C)[C@H](C)C2C2=CCC4[C@@]5(C)CC[C@H](O)C(C)(C)C5CC[C@@]4(C)[C@]2(C)CC3)cc1 (stereo partly drawn) [Analogue 10b, N-[3β-Hydroxy-urs-12-en-28-oyl]-p-methoxylaniline] | 2550 nM |
| C[C@@H]1CC[C@]2(C(=O)Nc3ccc(Cl)cc3)CC[C@]3(C)C(=CCC4[C@@]5(C)CC[C@H](O)C(C)(C)C5CC[C@]43C)C2[C@H]1C (stereo partly drawn) [Analogue 8b, N-[3β-Hydroxy-urs-12-en-28-oyl]-p-chloroaniline] | 1270 nM |
| C[C@@H]1CC[C@]2(C(=O)Nc3ccccc3Cl)CC[C@]3(C)C(=CCC4[C@@]5(C)CC[C@H](O)C(C)(C)C5CC[C@]43C)C2[C@H]1C (stereo partly drawn) [Analogue 5b, N-[3β-Hydroxy-urs-12-en-28-oyl]-o-chloroaniline] | 1310 nM |
| COc1ccc(NC(=O)[C@]23CC[C@@H](C)[C@H](C)C2C2=CCC4[C@@]5(C)CC[C@H](OC(C)=O)C(C)(C)C5CC[C@@]4(C)[C@]2(C)CC3)cc1 (stereo partly drawn) [Analogue 10a, N-[3β-acetoxy-urs-12-en-28-oyl]-p-methoxyamiline] | 2010 nM |
| C[C@@H]1CC[C@]2(C(=O)Nc3ccccc3Br)CC[C@]3(C)C(=CCC4[C@@]5(C)CC[C@H](O)C(C)(C)C5CC[C@]43C)C2[C@H]1C (stereo partly drawn) [Analogue 6b, N-[3β-Hydroxy-urs-12-en-28-oyl]-o-bromoaniline] | 2560 nM |
| C[C@@H]1CC[C@]2(C(=O)Nc3ccc(F)cc3)CC[C@]3(C)C(=CCC4[C@@]5(C)CC[C@H](O)C(C)(C)C5CC[C@]43C)C2[C@H]1C (stereo partly drawn) [Analogue 7b, N-[3β-Hydroxy-urs-12-en-28-oyl]-p-fluoroaniline] | 1670 nM |
| C[C@@H]1CC[C@]2(C(=O)Nc3ccc(Br)cc3)CC[C@]3(C)C(=CCC4[C@@]5(C)CC[C@H](O)C(C)(C)C5CC[C@]43C)C2[C@H]1C (stereo partly drawn) [Analogue 9b, N-[3β-Hydroxy-urs-12-en-28-oyl]-p-bromoaniline] | 1280 nM |
| C[C@@H]1CC[C@]2(C(=O)Nc3ccccc3)CC[C@]3(C)C(=CCC4[C@@]5(C)CC[C@H](O)C(C)(C)C5CC[C@]43C)C2[C@H]1C (stereo partly drawn) [Analogue 3b, N-[3β-Hydroxy-urs-12-en-28-oyl]-aminobenzene] | 1690 nM |
| C[C@@H]1CC[C@]2(C(=O)Nc3ccccc3F)CC[C@]3(C)C(=CCC4[C@@]5(C)CC[C@H](O)C(C)(C)C5CC[C@]43C)C2[C@H]1C (stereo partly drawn) [Analogue 4b, N-[3β-Hydroxy-urs-12-en-28-oyl]-o-fluoroaniline] | 1510 nM |
